Where “and” joins values, the source holds several entries; their conditions need not be identical. Equal values may be shown once. Numbers after ± are expanded uncertainties.
Details: Liquid, Diaphragm manometer

Cl[SiH2]Cl [dichlorosilane]
Details	vapor or sublimation pressure
299.99 K	214.5 ± 4.4 kPa [middle of 4 runs]
300 K	216.5 ± 4.4 kPa and 212.1 ± 4.3 kPa and 214.2 ± 4.3 kPa
309.99 K	284.3 ± 5.8 kPa
319.98 K	377.6 ± 7.7 kPa
319.99 K	377.9 ± 7.7 kPa
320 K	380.4 ± 7.7 kPa and 381.43 ± 7.8 kPa and 377.3 ± 7.7 kPa
323.01 K	407.8 ± 8.3 kPa
329.99 K	485.8 ± 9.9 kPa
330.02 K	492.2 ± 10 kPa
339.99 K	626.4 ± 13 kPa [middle of 4 runs]
340 K	628.6 ± 13 kPa
343.01 K	672.6 ± 14 kPa
349.99 K	784.7 ± 16 kPa and 786.4 ± 16 kPa and 789 ± 16 kPa
350 K	785 ± 16 kPa
359.98 K	981.9 ± 20 kPa
359.99 K	985.9 ± 20 kPa [middle of 4 runs]
362.99 K	1052.1 ± 21 kPa
369.98 K	1205 ± 24 kPa
369.99 K	1205 ± 24 kPa and 1209 ± 25 kPa
379.99 K	1477 ± 30 kPa [middle of 5 runs]
389.99 K	1779 ± 36 kPa and 1784 ± 36 kPa and 1780.5 ± 36 kPa
399.99 K	2099 ± 43 kPa and 2138 ± 43 kPa
409.98 K	2559 ± 52 kPa
410 K	2534 ± 51 kPa
419.99 K	3016 ± 61 kPa

Cl[SiH](Cl)Cl [trichlorosilane]
Details	vapor or sublimation pressure [kPa]
310 K	121.89 ± 2.5
320 K	167.53 ± 3.4
330 K	225.35 ± 4.6
340 K	297.4 ± 6
350 K	385.6 ± 7.8
360 K	492.1 ± 10
370 K	619.6 ± 13
380 K	770.2 ± 16
380.5 K	778.2 ± 16
385 K	854.6 ± 17
390 K	946 ± 19
395 K	1044.2 ± 21

Cl[Si](Cl)(Cl)Cl [silicon tetrachloride]
Details	vapor or sublimation pressure
332.99 K	113.02 ± 2.3 kPa
340 K	139.15 ± 2.8 kPa and 138.98 ± 2.8 kPa
350.01 K	185.05 ± 3.8 kPa
360 K	241.64 ± 4.9 kPa
370 K	311.49 ± 6.3 kPa
380 K	395.69 ± 8 kPa
390 K	495.9 ± 10 kPa
400 K	614 ± 12 kPa

— the NIST ThermoML archive (doi:10.1021/acs.jced.6b00142)
